The values that follow come from patent US20260184707A1, “PHARMACEUTICAL COMPOUNDS FOR THE TREATMENT OF COMPLEMENT MEDIATED DISORDERS” (ALEXION PHARMACEUTICALS, INC., priority 2022, published 2026).

What is called IC50 is the concentration at which inhibition is half-maximal.

The assay addresses T1, Human complement C1s enzyme (Homo sapiens, UniProt P09871).
T1 construct: purified from human serum, Complement Technology, Inc; purchased Complement Technology, Inc; host or cells: human serum (plasma-derived native protein)
T1 sequence (P09871 438-688 limits assumed): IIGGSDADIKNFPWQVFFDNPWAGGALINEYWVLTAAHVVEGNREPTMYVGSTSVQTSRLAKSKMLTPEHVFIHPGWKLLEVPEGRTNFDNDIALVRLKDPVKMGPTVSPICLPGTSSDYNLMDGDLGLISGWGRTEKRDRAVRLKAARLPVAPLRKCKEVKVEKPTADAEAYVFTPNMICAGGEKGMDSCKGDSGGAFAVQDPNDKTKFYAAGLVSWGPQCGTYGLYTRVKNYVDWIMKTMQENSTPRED
T1 sequence (P09871 16-437 partner limits assumed): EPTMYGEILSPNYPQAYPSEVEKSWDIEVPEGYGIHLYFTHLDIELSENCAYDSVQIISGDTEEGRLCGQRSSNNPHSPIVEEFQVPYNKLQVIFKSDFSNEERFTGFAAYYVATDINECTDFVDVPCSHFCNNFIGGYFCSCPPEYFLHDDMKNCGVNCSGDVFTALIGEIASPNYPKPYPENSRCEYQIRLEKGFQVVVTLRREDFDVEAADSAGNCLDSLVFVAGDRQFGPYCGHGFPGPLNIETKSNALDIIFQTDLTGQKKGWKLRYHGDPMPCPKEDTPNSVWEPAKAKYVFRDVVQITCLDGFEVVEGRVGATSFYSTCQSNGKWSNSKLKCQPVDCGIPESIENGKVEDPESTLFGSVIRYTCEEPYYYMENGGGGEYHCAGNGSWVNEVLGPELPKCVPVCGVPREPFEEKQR
In words: Human C1s enzyme assay. The assay is classed as biochemical. The conditions noted are these: human complement C1s enzyme 1.16 nM, substrate Z-L-Lys-SBzl, A405; read-out: IC50 (Stars). The procedure: The […] values of the compounds of Table 1 were determined with the human C1s enzyme assay described below. Other standard complement assays are also available.
Human complement C1s enzyme (purified from human serum, Complement Technology, Inc.) at 1.16 nM final concentration was incubated with test compound at various concentrations for 5 min at room temperature in 50 mM Tris, 1 M NaCl, pH 7.5. A synthetic substrate Z-L-Lys-SBzl and DTNB (Ellman's reagent) were added to final concentrations of 100 μM each. Absorbance at 405 nm (A405) was recorded at 30 second intervals for […] using a microplate spectrophotometer. IC values were calculated by nonlinear regression of complement C1s reaction rates as a function of test compound concentration.
[…]; ND indicates a compound for which the IC50 value is not determined.

On to `O=C(CN1C(=O)[C@@H](NCCCc2ccccc2)CC[C@H]1c1ccccc1)NCc1cc2cnccc2[nH]1` (relative stereo) [Compound 489, N-((1H-Pyrrolo[3,2-c]pyridine-2-yl)methyl)-2-((3S*,6S*)-2-oxo-6-phenyl-3-((3-phenylpropyl)amino)piperidin-1-yl)acetamide], for which the half-inhibitory concentration (IC50) is > 1000 nM. In the case of `C[C@@H](Nc1cnc(-c2ccccc2F)n([C@@H](C)C(=O)NCc2cc3cnccc3[nH]2)c1=O)c1ccc2oc3ccccc3c2c1` (single isomer, unassigned) [Compound 363, (S*)—N-((1H-pyrrolo[3,2-c]pyridine-2-yl)methyl)-2-(5-(((R)-1-(dibenzo[b,d]furan-2-yl)ethyl)amino)-2-(2-fluorophenyl)-6-oxopyrimidin-1(6H)-yl)propenamide], the IC50 is > 1000 nM. To `C[C@H](C(=O)NCc1cc2cnccc2[nH]1)n1c(-c2ccccc2F)ncc(N[C@H](C)c2ccc3oc4ccccc4c3c2)c1=O` (single isomer, unassigned) [Compound 364, (R*)—N-((1H-pyrrolo[3,2-c]pyridine-2-yl)methyl)-2-(5-(((R)-1-(dibenzo[b,d]furan-2-yl)ethyl)amino)-2-(2-fluorophenyl)-6-oxopyrimidin-1(6H)-yl)propenamide] belongs > 1000 nM. To `O=C(Cn1c(-c2ccccc2F)ncc(N[C@H](CF)c2ccc3oc4ccccc4c3c2)c1=O)NCc1cc2cnccc2[nH]1` (single isomer, unassigned) [Compound 375, (S*)—N-((1H-pyrrolo[3,2-c]pyridine-2-yl)methyl)-2-(5-((1-(dibenzo[b,d]furan-2-yl)-2-fluoroethyl)amino)-2-(2-fluorophenyl)-6-oxopyrimidin-1(6H)-yl)acetamide] belongs < 100 nM.

With `O=C(Cn1c(N2CCCCC2)ncc(NC(CF)c2ccc3oc4ccccc4c3c2)c1=O)NCc1cc2cnccc2[nH]1` (single isomer, unassigned) [Compound 441], the IC50 is < 100 nM. To `O=C(Cn1c(-c2ccccc2)ncc(NCCCc2ccccc2)c1=O)NCc1cc2cnccc2[nH]1` [Compound 1, N-((1H-pyrrolo[3,2-c]pyridin-2-yl)methyl)-2-(6-oxo-2-phen-yl-5-((3-phenylpropyl)amino)-pyrimidin-1(6H)-yl)acetamide] belongs < 100 nM; to `O=C(Cn1c(-c2ccccc2)ncc(NCCCCc2ccccc2)c1=O)NCc1cc2cnccc2[nH]1` [Compound 2, N-((1H-pyrrolo[3,2-c]pyridin-2-yl)methyl)-2-(6-oxo-2-phen-yl-5-((4-phenylbutyl)amino)-pyrimidin-1(6H)-yl)acetamide], < 100 nM. The result for `O=C(Cn1c(-c2ccccc2)ncc(NCCCCCc2ccccc2)c1=O)NCc1cc2cnccc2[nH]1` [Compound 3, N-((1H-pyrrolo[3,2-c]pyridin-2-yl)methyl)-2-(6-oxo-2-phen-yl-5-((5-phenylpentyl)amino)-pyrimidin-1(6H)-yl)acetamide] reads < 100 nM; that for `O=C(Cn1c(-c2ccccc2)ncc(NC(=O)CCCOc2ccccc2)c1=O)NCc1cc2cnccc2[nH]1` [Compound 4, N-(1-(2-(((1H-pyrrolo[3,2-c]pyridin-2-yl)methyl)amino)-2-oxoethyl)-6-oxo-2-phenyl-1,6-dihydropyrimidin-5-yl)-4-phen-oxybutanamide], < 100 nM.

As to `O=C(Cn1c(-c2ccccc2)ncc(NC(=O)CCc2ccccc2)c1=O)NCc1cc2cnccc2[nH]1` [Compound 5, N-(1-(2-(((1H-pyrrolo[3,2-c]pyridin-2-yl)methyl)amino)-2-oxoethyl)-6-oxo-2-phenyl-1,6-dihydropyrimidin-5-yl)-3-phenylpropanamide], the half-maximal inhibitory concentration (IC50) is < 100 nM. The result for `O=C(Cn1c(-c2ccccc2)ncc(NCCOc2ccccc2)c1=O)NCc1cc2cnccc2[nH]1` [Compound 6, N-((1H-pyrrolo[3,2-c]pyridin-2-yl)methyl)-2-(6-oxo-5-((2-phenoxyethyl)amino)-2-phen-ylpyrimidin-1(6H)-yl)aceamide] reads < 100 nM; that for `O=C(Cn1c(-c2ccccc2)ncc(NCCCOc2ccccc2)c1=O)NCc1cc2cnccc2[nH]1` [Compound 7, N-((1H-pyrrolo[3,2-c]pyridin-2-yl)methyl)-2-(6-oxo-5-((3-phenoxypropyl)amino)-2-phenylpyrimidin-1(6H)-yl)-acetamide], < 100 nM; that for `O=C(Cn1c(-c2ccccc2)ncc(NC(=O)c2ccc(Oc3ccccc3)cc2)c1=O)NCc1cc2cnccc2[nH]1` [Compound 8, N-(1-(2-(((1H-pyrrolo[3,2-c]pyridin-2-yl)methyl)amino)-2-oxoethyl)-6-oxo-2-phenyl-1,6-dihydropyrimidin-5-yl)-4-phenoxybenzamide], < 100 nM.

On to `C[C@H](NC(=O)Cn1c(-c2ccccc2)ncc(NCCCc2ccccc2)c1=O)c1cc2cnccc2[nH]1` [Compound 9, (S)—N-(1-(1H-pyrrolo[3,2-c]pyridin-2-yl)ethyl)-2-(6-oxo-2-phenyl-5-((3-phenylpropyl)amino)pyrimidin-1(6H)-yl)acetamide], for which the half-inhibitory concentration (IC50) is > 1000 nM. To `C[C@@H](NC(=O)Cn1c(-c2ccccc2)ncc(NCCCc2ccccc2)c1=O)c1cc2cnccc2[nH]1` [Compound 10, (R)-N-(1-(1H-pyrrolo[3,2-c]pyridin-2-yl)ethyl)-2-(6-oxo-2-phenyl-5-((3-phenylpropyl)-amino)pyrimidin-1(6H)-yl)-acetamide] belongs < 100 nM; to `O=C(Cn1c(-c2ccccc2)ncc(NCCCCOc2ccccc2)c1=O)NCc1cc2cnccc2[nH]1` [Compound 11, N-((1H-pyrrolo[3,2-c]pyridin-2-yl)methyl)-2-(6-oxo-5-((4-phenoxybutyl)amino)-2-phenylpyrimidin-1(6H)-yl)acetamide], < 100 nM. Take `C[C@@H](NC(=O)Cn1c(-c2ccccc2)cnc(NCCCc2ccccc2)c1=O)c1cc2cnccc2[nH]1` [Compound 12, (R)-N-(1-(1H-pyrrolo[3,2-c]pyridin-2-yl)ethyl)-2-(2-oxo-6-phenyl-3-((3-phenylpropyl)-amino)pyrazin-1(2H)-yl)-acetamide]: the 50% inhibitory concentration (IC50) lay within 100 to 1000 nM.

Turning to `O=C(Cn1c(-c2ccccc2)cnc(NCCCc2ccccc2)c1=O)N[C@H](CO)c1cc2cnccc2[nH]1` [Compound 13, (S)-N-(2-hydroxy-1-(1H-pyr-rolo[3,2-c]pyridin-2-yl)ethyl)-2-(2-oxo-6-phenyl-3-((3-phen-ylpropyl)amino)pyrazin-1(2H)-yl)acetamide], the IC50 was in the range of 100 to 1000 nM. To `O=C(Cn1c(-c2ccccc2)cnc(NCCCc2ccccc2)c1=O)N[C@@H](CO)c1cc2cnccc2[nH]1` [Compound 14, (R)-N-(2-hydroxy-1-(1H-pyr-rolo[3,2-c]pyridin-2-yl)ethyl)-2-(2-oxo-6-phenyl-3-((3-phen-ylpropyl)amino)pyrazin-1(2H)-yl)acetamide] belongs > 1000 nM; to `O=C(Cn1c(-c2ccccc2)ncc(NCCCc2ccccc2)c1=O)N[C@H](CO)c1cc2cnccc2[nH]1` [Compound 15, (S)-N-(2-hydroxy-1-(1H-pyr-rolo[3,2-c]pyridin-2-yl)ethyl)-2-(6-oxo-2-phenyl-5-((3-phen-ylpropyl)amino)pyrimidin-1(6H)-yl)acetamide], > 1000 nM. On to `O=C(Cn1c(-c2ccccc2)ncc(NCCCc2ccccc2)c1=O)N[C@@H](CO)c1cc2cnccc2[nH]1` [Compound 16, (R)-N-(2-hydroxy-1-(1H-pyr-rolo[3,2-c]pyridin-2-yl)ethyl)-2-(6-oxo-2-phenyl-5-((3-phen-ylpropyl)amino)pyrimidin-1(6H)-yl)acetamide], for which the IC50 was > 1000 nM. The result for `O=C(Cn1c(-c2ccccc2)cnc(NCCCc2ccccc2)c1=O)NCc1cc2cnccc2[nH]1` [Compound 17, N-((1H-pyrrolo[3,2-c]pyridin-2-yl)methyl)-2-(2-oxo-6-phen-yl-3-((3-phenylpropyl)amino)-pyrazin-1(2H)-yl)acetamide] reads < 100 nM; that for `O=C(Cn1c(-c2ccccc2)ncc(NC(=O)CCCc2ccc(Oc3ccccc3)cc2)c1=O)NCc1cc2cnccc2[nH]1` [Compound 18, N-(1-(2-(((1H-pyrrolo[3,2-c]pyridin-2-yl)methyl)amino)-2-oxoethyl)-6-oxo-2-phenyl-1,6-dihydropyrimidin-5-yl)-4-(4-phenoxyphenyl)butanamide], < 100 nM; that for `O=C(Cn1c(-c2ccccc2)ncc(NCc2ccc(-c3ccccc3)cc2)c1=O)NCc1cc2cnccc2[nH]1` [Compound 19, N-((1H-pyrrolo[3,2-c]pyridin-2-yl)methyl)-2-(5-(([1,1′-biphenyl]-4-ylmethyl)amino)-6-oxo-2-phenylpyrimidin-1(6H)-yl)acetamide], < 100 nM.
